Test results: patent US7566718B2, “Amine-linked pyridyl and phenyl substituted piperazine-piperidines with CXCR3 antagonist activity” (Schering Corporation, priority 2005, dated 2009)

biological target: T1, human CXCR3 (N-delta 4) (Homo sapiens, UniProt P49682); assay: Human CXCR3 (N-delta 4) scintillation proximity assay (SPA), [125I] IP-10 binding to Ba/F3-hCXCR3 membranes; details: IC50 rating; [125I] IP-10 displacement, human CXCR3; read-out: IC50
T1 construct: CD8 leader (N); Flag tag; expressed in transfected cells; membrane preparation
T1 sequence (P49682 5-368 limits assumed): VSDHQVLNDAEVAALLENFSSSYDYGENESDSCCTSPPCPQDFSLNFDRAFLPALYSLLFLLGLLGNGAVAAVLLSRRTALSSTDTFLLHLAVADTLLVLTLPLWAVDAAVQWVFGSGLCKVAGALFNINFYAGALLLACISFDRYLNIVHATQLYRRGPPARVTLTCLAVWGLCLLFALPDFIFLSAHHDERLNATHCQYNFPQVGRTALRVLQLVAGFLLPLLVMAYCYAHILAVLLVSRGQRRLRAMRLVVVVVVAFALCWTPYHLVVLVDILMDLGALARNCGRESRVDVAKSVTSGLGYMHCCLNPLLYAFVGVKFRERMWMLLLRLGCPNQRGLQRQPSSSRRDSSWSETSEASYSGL
Method in brief: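 Membranes from Ba/F3 cells expressing Flag-tagged hCXCR3 (N-delta 4), 2 μg/point, precoupled to WGA SPA beads. Binding of 25 pM [125I] IP-10 measured with titrated compounds, 3 hr at room temperature, in HEPES buffer with CaCl2, MgCl2, NaCl and 1.0% BSA; bound tracer read by scintillation counting.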

SMILES	IC50
C[C@@H]1CN(c2ncc(Nc3c(NCC(F)(F)F)c(=O)c3=O)cc2Cl)[C@@H](C)CN1C1CCN(Cc2cc3ccccc3o2)CC1 [Compound 133]	> 100 nM
CCC(C)(C)C1CCC(N2CCC(N3C[C@H](C)N(c4ncc(Nc5c(NCC(F)(F)F)c(=O)c5=O)cc4Cl)C[C@H]3C)CC2)C1 (some centres unmarked) [Compound 171]	> 100 nM
C[C@@H]1CN(c2ncc(Nc3c(NCC(F)(F)F)c(=O)c3=O)cc2Cl)[C@@H](C)CN1C1CCN(C2CCCC2)CC1 [Compound 162]	> 100 nM
CC[C@H]1CN(c2ncc(NS(C)(=O)=O)cc2Cl)CCN1C1CCN(C(=O)c2ccc(Br)s2)CC1 [Compound 69]	> 100 nM
CC[C@H]1CN(c2cc(N)c(N)cc2Cl)CCN1C1CCN(Cc2ccc(Cl)cc2F)CC1 [Compound 226]	> 100 nM
C[C@@H]1CN(c2ncc(Nc3c(NCC(F)(F)F)c(=O)c3=O)cc2Cl)[C@@H](C)CN1C1CCN(CCCc2ccccc2)CC1 [Compound 116]	> 100 nM
CC[C@H]1CN(c2ncc(N(Cc3ccc(C#N)cc3)c3c(C(C)C)c(=O)c3=O)cc2Cl)CCN1C1CCN(Cc2ccc(C#N)cc2)CC1 [Compound 148]	> 100 nM
C[C@H]1CN(c2ncc(N)cc2Cl)CCN1C1CCN(Cc2ccc(Cl)cc2F)CC1 [Compound 224]	> 100 nM
CC[C@H]1CN(c2ncc(NC3=NS(=O)(=O)N=C3N(C)C)cc2Cl)CCN1C1CCN(Cc2ccc(OC(F)(F)F)cc2)CC1 [Compound 271]	> 100 nM
CC[C@H]1CN(c2ncc(NC3=NS(=O)(=O)N=C3NC3CC3)cc2Cl)CCN1C1CCN(Cc2ccc(C#N)nc2)CC1 [Compound 266]	> 100 nM
CC[C@H]1CN(c2ncc(NS(C)(=O)=O)cc2Cl)CCN1C1CCN(Cc2ccc(C(=O)OC)cn2)CC1 [Compound 42]	> 100 nM
C[C@@H]1CN(c2ncc(Nc3c(NCC(F)(F)F)c(=O)c3=O)cc2Cl)[C@@H](C)CN1C1CCN(Cc2csc3ccccc23)CC1 [Compound 156]	> 100 nM
CC[C@H]1CN(c2cc(N)c([N+](=O)[O-])cc2Cl)CCN1C1CCN(Cc2ccc(Cl)cc2F)CC1 [Compound 220]	> 100 nM
CC[C@H]1CN(c2ncc(NC3=NS(=O)(=O)N=C3NCC(=O)O)cc2Cl)CCN1C1CCN(Cc2ccc(Cl)cc2F)CC1 [Compound 280]	> 100 nM
CC(C)C1CCC(N2CCC(N3C[C@H](C)N(c4ncc(Nc5c(NCC(F)(F)F)c(=O)c5=O)cc4Cl)C[C@H]3C)CC2)CC1 (some centres unmarked) [Compound 169]	> 100 nM
C[C@H]1CN(c2ncc(NS(C)(=O)=O)cc2Cl)CCN1C1CCN(Cc2ccc(C(F)(F)F)cc2F)CC1 [Compound 64]	> 100 nM
CC[C@H]1CN(c2ncc(NC(=O)C3CCCCC3)cc2Cl)CCN1C1CCN(Cc2ccc(Cl)cc2F)CC1 [Compound 195]	> 100 nM
C[C@@H]1CN(c2ncc(Nc3c(NCC(F)(F)F)c(=O)c3=O)cc2Cl)[C@@H](C)CN1C1CCN(C/C=C/c2ccccc2)CC1 [Compound 115]	> 100 nM
CC[C@H]1CN(c2ncc(NC(=N)N)cc2Cl)CCN1C1CCN(Cc2ccc(Cl)cc2F)CC1 [Compound 221]	> 100 nM
Cc1cc(Nc2c(NCC(F)(F)F)c(=O)c2=O)cnc1N1C[C@@H](C)N(C2CCN(C(=O)C3Cc4ccccc4C3)CC2)C[C@@H]1C [Compound 166]	> 100 nM
Cc1cc(Nc2c(NCC(F)(F)F)c(=O)c2=O)cnc1N1C[C@@H](C)N(C2CCN(C(=O)c3c(C)noc3C)CC2)C[C@@H]1C [Compound 165]	> 100 nM
CCNC(=O)Nc1cnc(N2C[C@H](C)N(C3CCN(Cc4ccc(Cl)cc4F)CC3)C[C@H]2C)c(Cl)c1 [Compound 191]	> 100 nM
Cc1cc(Nc2c(NCC(F)(F)F)c(=O)c2=O)cnc1N1C[C@@H](C)N(C2CCN(C(=O)c3ccc(C(F)(F)F)cc3)CC2)C[C@@H]1C [Compound 164]	> 100 nM
CC[C@H]1CN(c2ncc(Nc3c(NCC(=O)O)c(=O)c3=O)cc2Cl)CCN1C1CCN([C@H](CO)c2ccc(Cl)cc2)CC1 [Compound 129]	> 100 nM
CC[C@H]1CN(c2ncc(NC3=NS(=O)(=O)N=C3N3CCC3)cc2Cl)CCN1C1CCN(Cc2ccc(F)c(F)c2)CC1 [Compound 268]	> 100 nM
CC[C@H]1CN(c2ncc(NC3=NS(=O)(=O)N=C3NCC(F)(F)F)cc2Cl)CCN1C1CCN(Cc2ccc(F)c(F)c2)CC1 [Compound 264]	> 100 nM
C[C@H]1CN(c2ncc([N+](=O)[O-])cc2Cl)CCN1C1CCN(Cc2ccc(Cl)cc2F)CC1 [Compound 227]	> 100 nM
CC[C@H]1CN(c2ncc(Nc3c(NC4CC4)c(=O)c3=O)cc2Cl)CCN1C1CCN([C@@H](C(N)=O)c2ccc(Cl)cc2)CC1 [Compound 167]	> 100 nM
C[C@@H]1CN(c2ncc(Nc3c(NCC(F)(F)F)c(=O)c3=O)cc2Cl)[C@@H](C)CN1C1CCN(C2CCC(c3ccccc3)CC2)CC1 (some centres unmarked) [Compound 173]	> 100 nM
CC[C@H]1CN(c2ncc(NS(C)(=O)=O)cc2Cl)CCN1C1CCN(Cc2cccs2)CC1 [Compound 58]	> 100 nM

Further lines, results first:

IC50	SMILES
> 100 nM	Cc1ccc(CN2CCC(N3CCN(c4ncc(NS(C)(=O)=O)cc4Cl)C[C@@H]3C)CC2)c(C)c1 [Compound 49]
> 100 nM	C[C@@H]1CN(c2ncc(Nc3c(NCC(F)(F)F)c(=O)c3=O)cc2Cl)[C@@H](C)CN1C1CCN(Cc2cccc3c2OCO3)CC1 [Compound 119]
< 25 nM	C[C@@H]1CN(c2ncc(Nc3c(NCC(F)(F)F)c(=O)c3=O)cc2Cl)[C@@H](C)CN1C1CCN(Cc2ccc(Cl)cc2)CC1 [Compound 98]
< 25 nM	CC[C@H]1CN(c2ncc(Nc3c(NCC(F)(F)F)c(=O)c3=O)cc2Cl)CCN1C1CCN(Cc2ccc(Cl)cc2F)CC1 [Compound 75]
< 25 nM	CC[C@H]1CN(c2ncc(Nc3c(C(C)C)c(=O)c3=O)cc2Cl)CCN1C1CCN(Cc2ccc(C#N)cc2)CC1 [Compound 88]
< 25 nM	CC[C@H]1CN(c2ncc(NS(C)(=O)=O)cc2Cl)CCN1C1CCN(Cc2ccc(F)c(F)c2)CC1 [Compound 21]
< 25 nM	CC[C@H]1CN(c2ncc(NS(=O)(=O)C3CC3)cc2Cl)CCN1C1CCN(Cc2ccc(Cl)cc2F)CC1 [Compound 22]
< 25 nM	CC[C@H]1CN(c2ncc(NC3=NS(=O)(=O)N=C3NC[C@H](C)O)cc2Cl)CCN1C1CCN(Cc2ccc(Cl)cc2F)CC1 [Compound 253]
< 25 nM	CC[C@H]1CN(c2ncc(-n3cn[nH]c3=O)cc2Cl)CCN1C1CCN(Cc2ccc(Cl)cc2F)CC1 [Compound 179]
< 25 nM	CC[C@H]1CN(c2ncc([N+](=O)[O-])cc2Cl)CCN1C1CCN([C@H](CO)c2ccc(Cl)cc2)CC1 [Compound 201]
< 25 nM	CC[C@H]1CN(c2ncc(NC3=NS(=O)(=O)N=C3NC3CC3)cc2Cl)CCN1C1CCN(Cc2ccc(Cl)c(F)c2)CC1 [Compound 242]
25 to 100 nM	CC[C@H]1CN(c2ncc(N/C(=N/C#N)NC)cc2Cl)CCN1C1CCN(Cc2ccc(Cl)cc2F)CC1 [Compound 205]
25 to 100 nM	CC[C@H]1CN(c2ncc(NC3=NS(=O)(=O)N=C3N)cc2Cl)CCN1C1CCN(Cc2ccc(Cl)cc2F)CC1 [Compound 259]
< 25 nM	C[C@@H]1CN(c2ncc(Nc3c(NCC(F)(F)F)c(=O)c3=O)cc2Cl)[C@@H](C)CN1C1CCN(Cc2ccc(Cl)cc2F)CC1 [Compound 89]
< 25 nM	CC[C@H]1CN(c2ncc(NS(C)(=O)=O)cc2Cl)CCN1C1CCN(Cc2ccc(Cl)cc2)CC1 [Compound 6]
25 to 100 nM	CC[C@H]1CN(c2ncc(NS(C)(=O)=O)cc2Cl)CCN1C1CCN(C(=O)c2ccc(Cl)nc2N)CC1 [Compound 31]
< 25 nM	CC[C@H]1CN(c2ncc(NC3=NS(=O)(=O)N=C3NC3CC3)cc2Cl)CCN1C1CCN(Cc2ccc(Cl)cc2C(=N)NO)CC1 [Compound 236]
< 25 nM	CC[C@H]1CN(c2ncc(NS(C)(=O)=O)cc2Cl)CCN1C1CCN(C(CO)c2ccc(Cl)cc2)CC1 (some centres unmarked) [Compound 11]
25 to 100 nM	CC[C@H]1CN(c2ncc(NC3=NS(=O)(=O)N=C3N3CCOCC3)cc2Cl)CCN1C1CCN(Cc2ccc(OC(F)(F)F)cc2)CC1 [Compound 261]
< 25 nM	CC[C@H]1CN(c2ncc(Nc3c(N4CCC4)c(=O)c3=O)cc2Cl)CCN1C1CCN(Cc2ccc(Cl)cc2F)CC1 [Compound 93]
25 to 100 nM	CC[C@H]1CN(c2ncc(N)cc2Cl)CCN1C1CCN(Cc2ccc(Cl)cc2F)CC1 [Compound 206]
25 to 100 nM	CC[C@H]1CN(c2ncc(NS(C)(=O)=O)cc2Cl)CCN1C1CCN(C(C(=O)OC)c2ccc(Cl)cc2)CC1 (some centres unmarked) [Compound 39]
25 to 100 nM	CC[C@H]1CN(c2ncc(Nc3c(NCC(N)=O)c(=O)c3=O)cc2Cl)CCN1C1CCN([C@H](CO)c2ccc(Cl)cc2)CC1 [Compound 103]
< 25 nM	CCNC(=O)Nc1cnc(N2CCN(C3CCN(Cc4ccc(Cl)cc4F)CC3)[C@@H](CC)C2)c(Cl)c1 [Compound 183]
< 25 nM	CC[C@H]1CN(c2ncc(Nc3c(NC4CC4)c(=O)c3=O)cc2Cl)CCN1C1CCN(C(=O)c2ccc(Cl)cc2)CC1 [Compound 102]
< 25 nM	C[C@@H]1CN(C2CCN(Cc3ccc(Cl)cc3F)CC2)[C@@H](C)CN1c1ncc(Nc2c(NCC(F)(F)F)c(=O)c2=O)cc1Cl [Compound 92]
< 25 nM	CC[C@H]1CN(c2ncc(Nc3c(NC4CC4)c(=O)c3=O)cc2Cl)CCN1C1CCN([C@H](CO)c2ccc(Cl)cc2)CC1 [Compound 71]
25 to 100 nM	CCC(=O)Nc1cnc(N2CCN(C3CCN(Cc4ccc(Cl)cc4)CC3)[C@@H](C)C2)c(Cl)c1 [Compound 187]
25 to 100 nM	CC[C@H]1CN(c2ncc(NC3=NS(=O)(=O)N=C3NC3CC3)cc2Cl)CCN1C1CCN(Cc2ccc(Cl)cc2C#N)CC1 [Compound 260]
